From patent publication US6858591B2, “Antibiotic AA 896 analogs” (Wyeth Holdings Corporation, priority 2001, dated 2005)
In brackets after ≈: the same amount, converted by molar mass. Like-named read-outs stand apart in the source and are kept apart here.

Legend:
Assay in all cases: In vitro MIC, broth dilution
Assay type in all cases: cell-based
[1] = test system: E. coli GC 3226; settings: Escherichia coli, GC3226
[2] = test system: M. morganii GC 4531; settings: Morganella morganii, GC4531
[3] = test system: E. cloacae GC 3783; settings: Enterobacter cloacae, GC3783
[4] = test system: E. coli GC 4559; settings: Escherichia coli, GC4559
[5] = test system: S. marcescens GC 4077; settings: Serratia marcescens, GC4077
[6] = test system: K. pneumoniae GC 4534; settings: Klebsiella pneumoniae, GC4534
[7] = test system: CNS GC 4547
Summary of the method: (§1)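 Susceptibility testing used the NCCLS broth dilution method. Antibiotic spanned 64-0.06 μg/ml against an inoculum of 5×10^5 CFU/ml in Mueller-Hinton II; after 18 hours at 35° C the lowest concentration without growth gave the MIC.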

[8] = test system: E. faecalis GC 4555; settings: Enterococcus faecalis, GC4555
Summary of the method: as §1

[9] = test system: S. aureus GC 2216; settings: Staphylococcus aureus, GC2216
Summary of the method: as §1

[10] = test system: E. faecalis GC 842; settings: Enterococcus faecalis, GC842
Summary of the method: as §1

[11] = test system: CNS GC 4538
Summary of the method: as §1

[12] = test system: S. aureus GC 1131; settings: Staphylococcus aureus, GC1131
Summary of the method: as §1

[13] = test system: S. aureus GC 4536; settings: Staphylococcus aureus, GC4536
Summary of the method: as §1

[14] = test system: E. faecalis GC 2242; settings: Enterococcus faecalis, GC2242
Summary of the method: as §1

[15] = test system: CNS GC 4537
Summary of the method: as §1

[16] = test system: E. coli GC 4560; settings: Escherichia coli, GC4560
[17] = test system: C. albicans GC 3066; settings: Candida albicans, GC3066
[18] = test system: P. aeruginosa GC 2214; settings: Pseudomonas aeruginosa, GC2214
[19] = test system: P. aeruginosa GC 4532; settings: Pseudomonas aeruginosa, GC4532
[20] = test system: E. coli GC 2203; settings: Escherichia coli, GC2203
[21] = M. morganii GC 4531, read-out: MIC
[22] = E. cloacae GC 3783, read-out: MIC
[23] = S. marcescens GC 4077, read-out: MIC
[24] = K. pneumoniae GC 4534, read-out: MIC
[25] = E. faecalis GC 4555, read-out: MIC
[26] = S. aureus GC 2216, read-out: MIC
[27] = E. faecalis GC 842, read-out: MIC
[28] = S. aureus GC 1131, read-out: MIC
[29] = S. aureus GC 4536, read-out: MIC
[30] = E. faecalis GC 2242, read-out: MIC
[31] = C. albicans GC 3066, read-out: MIC
[32] = P. aeruginosa GC 2214, read-out: MIC
[33] = P. aeruginosa GC 4532, read-out: MIC

Row | Structure (SMILES) | MIC ([1]; E. coli GC 3226, read-out: MIC) | MIC [2, 21] | MIC [3, 22] | MIC ([4]; E. coli GC 4559, read-out: MIC) | MIC [5, 23] | MIC [6, 24] | MIC ([7]; CNS GC 4547, read-out: MIC) | MIC [8, 25] | MIC [9, 26] | MIC [10, 27] | MIC ([11]; CNS GC 4538, read-out: MIC) | MIC [12, 28] | MIC [13, 29] | MIC [14, 30] | MIC ([15]; CNS GC 4537, read-out: MIC) | MIC ([16]; E. coli GC 4560, read-out: MIC) | MIC [17, 31] | MIC [18, 32] | MIC [19, 33] | MIC ([20]; E. coli GC 2203, read-out: MIC) | other results
1 | CCOC(=O)C(NCCCNC(=O)[C@@H](NC(=O)[C@H](CCCNC(=N)N)NC(=O)N[C@H](C(=O)O)C(C)C)[C@@H](O)C(C)C)[C@@H](O)[C@H]1O[C@@H](n2ccc(=O)[nH]c2=O)[C@H](OC(C)=O)[C@@H]1OC(C)=O (stereo partly drawn) [Example 43, (2S,6S,9S)-6-(3-{[Amino(imino)methyl]amino}propyl)-16-[(R)-[(2R,3R,4R,5R)-3,4-bis(acetyloxy)-5-(2,4-dioxo-3,4-dihydro-1(2H)-pyrimidinyl)tetrahydro-2-furanyl](hydroxy)methyl]-9-[(1S)-1-hydroxy-2-methylpropyl]-2-isopropyl-4,7,10,17-tetraoxo-18-oxa-3,5,8,11,15-pentaazaicosan-1-oic acid] | > 128 µg/mL | > 128 µg/mL | > 128 µg/mL | > 128 µg/mL | > 128 µg/mL | > 128 µg/mL | > 128 µg/mL | > 128 µg/mL | > 128 µg/mL | > 128 µg/mL | > 128 µg/mL | > 128 µg/mL | > 128 µg/mL | > 128 µg/mL | > 128 µg/mL | > 128 µg/mL | 128 µg/mL (≈ 140 µM) | 128 µg/mL (≈ 140 µM) | 128 µg/mL (≈ 140 µM) | > 128 µg/mL | 
2 | COc1ccc(Cn2c(=O)ccn([C@@H]3OC([C@H](O)[C@H](NCCCNC(=O)[C@@H](N)CCCCN)C(=O)OC(C)(C)C)[C@@H](O[Si](C)(C)C(C)(C)C)[C@H]3O[Si](C)(C)C(C)(C)C)c2=O)cc1 (stereo partly drawn) [Example 19, tert-Butyl (2S,3R)-3-[(3R,4R,5R)-3,4-bis{[tert-butyl(dimethyl)silyl]oxy}-5-(3-(4-methoxybenzyl)-2,4-dioxo-3,4-dihydro-1(2H)-pyrimidinyl)tetrahydro-2-furanyl]-2-[(3-{[(2S)-2,6-diaminohexanoyl]amino}propyl)amino]-3-hydroxypropanoate] | 128 µg/mL (≈ 141 µM) | 128 µg/mL (≈ 141 µM) | > 128 µg/mL | > 128 µg/mL | 128 µg/mL (≈ 141 µM) | > 128 µg/mL | 16 µg/mL (≈ 17.6 µM) | 8 µg/mL (≈ 8.82 µM) | 8 µg/mL (≈ 8.82 µM) | 8 µg/mL (≈ 8.82 µM) | 8 µg/mL (≈ 8.82 µM) | 4 µg/mL (≈ 4.41 µM) | 8 µg/mL (≈ 8.82 µM) | 8 µg/mL (≈ 8.82 µM) | 8 µg/mL (≈ 8.82 µM) | 8 µg/mL (≈ 8.82 µM) | > 128 µg/mL | 128 µg/mL (≈ 141 µM) | 128 µg/mL (≈ 141 µM) | 128 µg/mL (≈ 141 µM) | 
3 | COc1ccc(Cn2c(=O)ccn([C@@H]3OC([C@H](O)[C@H](NCCCNC(=O)[C@H](CC(C)C)NC(=O)OCc4ccccc4)C(=O)OC(C)(C)C)[C@@H](O)[C@H]3O)c2=O)cc1 (stereo partly drawn) [Example 51, tert-Butyl (5S,12S)-12-[(R)-[(3S,4R,5R)-3,4-dihydroxy-5-(3-(4-methoxybenzyl)-2,4-dioxo-3,4-dihydro-1(2H)-pyrimidinyl)tetrahydro-2-furanyl](hydroxy)methyl]-5-isobutyl-3,6-dioxo-1-phenyl-2-oxa-4,7,11-triazatridecan-13-oate] | > 128 µg/mL | 128 µg/mL (≈ 160 µM) | > 128 µg/mL | > 128 µg/mL | > 128 µg/mL | > 128 µg/mL | > 128 µg/mL | 128 µg/mL (≈ 160 µM) | > 128 µg/mL | 128 µg/mL (≈ 160 µM) | 128 µg/mL (≈ 160 µM) | > 128 µg/mL | > 128 µg/mL | 128 µg/mL (≈ 160 µM) | > 128 µg/mL | 128 µg/mL (≈ 160 µM) | 128 µg/mL (≈ 160 µM) | 128 µg/mL (≈ 160 µM) | 128 µg/mL (≈ 160 µM) | > 128 µg/mL | 
4 | COc1ccc(Cn2c(=O)ccn([C@@H]3OC([C@@H](O)[C@H](NCCCNC(=O)[C@@H](NC(=O)OCc4ccccc4)[C@H](C)O)C(=O)OC(C)(C)C)[C@@H](O[Si](C)(C)C(C)(C)C)[C@H]3O[Si](C)(C)C(C)(C)C)c2=O)cc1 (stereo partly drawn) [Example 8, tert-Butyl (5S,12S)-12-[(S)-[(3R,4R,5R)-3,4-bis{[tert-butyl(dimethyl)silyl]oxy}-5-(3-(4-methoxybenzyl)-2,4-dioxo-3,4-dihydro-1(2H)-pyrimidinyl)tetrahydro-2-furanyl](hydroxy)methyl]-5-[(1S)-1-hydroxyethyl]-3,6-dioxo-1-phenyl-2-oxa-4,7,11-triazatridecan-13-oate] |  |  |  |  |  |  |  |  |  |  |  |  |  |  |  |  |  |  |  |  | MIC [1]: > 128 µg/mL; MIC [2]: 64 µg/mL (≈ 63.1 µM); MIC [3]: 64 µg/mL (≈ 63.1 µM); MIC [4]: > 128 µg/mL; MIC [5]: 64 µg/mL (≈ 63.1 µM); MIC [6]: 64 µg/mL (≈ 63.1 µM); MIC [7]: 128 µg/mL (≈ 126 µM); MIC [8]: 64 µg/mL (≈ 63.1 µM); MIC [9]: 128 µg/mL (≈ 126 µM); MIC [10]: 64 µg/mL (≈ 63.1 µM); MIC [11]: 128 µg/mL (≈ 126 µM); MIC [12]: 128 µg/mL (≈ 126 µM); MIC [13]: 128 µg/mL (≈ 126 µM); MIC [14]: 64 µg/mL (≈ 63.1 µM); MIC [15]: 128 µg/mL (≈ 126 µM); MIC [16]: 64 µg/mL (≈ 63.1 µM); MIC [17]: 32 µg/mL (≈ 31.5 µM); MIC [18]: 64 µg/mL (≈ 63.1 µM); MIC [19]: 64 µg/mL (≈ 63.1 µM); MIC [20]: 64 µg/mL (≈ 63.1 µM)
5 | COc1ccc(Cn2c(=O)ccn([C@@H]3OC([C@H](O)[C@H](NCCCNC(=O)[C@@H](N)CC(C)C)C(=O)OC(C)(C)C)[C@@H](O[Si](C)(C)C(C)(C)C)[C@H]3O[Si](C)(C)C(C)(C)C)c2=O)cc1 (stereo partly drawn) [Example 5, tert-Butyl (2S,3R)-2-[(3-{[(2S)-2-amino-4-methylpentanoyl]amino}propyl)amino]-3-[(3R,4R,5R)-3,4-bis{[tert-butyl(dimethyl)silyl]oxy}-5-(3-(4-methoxybenzyl)-2,4-dioxo-3,4-dihydro-1(2H)-pyrimidinyl)tetrahydro-2-furanyl]-3-hydroxypropanoate] | > 128 µg/mL | > 128 µg/mL | > 128 µg/mL | > 128 µg/mL | > 128 µg/mL | > 128 µg/mL | 64 µg/mL (≈ 71.7 µM) | 8 µg/mL (≈ 8.97 µM) | 8 µg/mL (≈ 8.97 µM) | 16 µg/mL (≈ 17.9 µM) | 8 µg/mL (≈ 8.97 µM) | 32 µg/mL (≈ 35.9 µM) | 16 µg/mL (≈ 17.9 µM) | 4 µg/mL (≈ 4.48 µM) | 4 µg/mL (≈ 4.48 µM) | > 128 µg/mL | > 128 µg/mL | > 128 µg/mL | > 128 µg/mL | > 128 µg/mL | 
6 | COc1ccc(Cn2c(=O)ccn([C@@H]3OC([C@H](O)[C@H](NCCCNC(=O)[C@@H](N)CCC(=O)OC(C)(C)C)C(=O)OC(C)(C)C)[C@@H](O[Si](C)(C)C(C)(C)C)[C@H]3O[Si](C)(C)C(C)(C)C)c2=O)cc1 (stereo partly drawn) [Example 21, tert-Butyl (4S)-4-amino-5-[(3-{[(1S,2R)-2-[(3R,4R,5R)-3,4-bis{[tert-butyl(dimethyl)silyl]oxy}-5-(3-(4-methoxybenzyl)-2,4-dioxo-3,4-dihydro-1(2H)-pyrimidinyl)tetrahydro-2-furanyl]-1-(tert-butoxycarbonyl)-2-hydroxyethyl]amino}propyl)amino]-5-oxopentanoate] | > 128 µg/mL | > 128 µg/mL | > 128 µg/mL | > 128 µg/mL | > 128 µg/mL | > 128 µg/mL | > 128 µg/mL | > 128 µg/mL | > 128 µg/mL | > 128 µg/mL | > 128 µg/mL | > 128 µg/mL | > 128 µg/mL | > 128 µg/mL | > 128 µg/mL | > 128 µg/mL | > 128 µg/mL | > 128 µg/mL | > 128 µg/mL | > 128 µg/mL | 
